From publication PMC9821961, “Ring-Modified Histidine-Containing Cationic Short Peptides Exhibit Anticryptococcal Activity by Cellular Disruption” (Molecules, 2022)
Converted amounts (≈) assume the structure as drawn.

Legend:
P. aeruginosa = assay: microbe, parasite or virus in culture; assay type: cell-based, Pseudomonas aeruginosa; details: 48 h
C. albicans = assay: microbe, parasite or virus in culture; assay type: cell-based, Candida albicans; details: 48 h
How it was run: (§1)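 Growth inhibition was measured by broth microdilution. MIC and IC50 were calculated from optical density at 600 nm after 48 h at 30 °C for Candida and Cryptococcus (10^3 CFU/mL, RPMI 1640 or YPED) and after 24 h at 37 °C for the Gram-positive bacteria (10^5 CFU/mL, Mueller Hinton).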

C. glabrata = assay: microbe, parasite or virus in culture; assay type: cell-based, Candida glabrata; details: 48 h
How it was run: as §1

C. neoformans cells = assay: Cell death pattern analysis by flow cytometry (Annexin V-FITC/PI); assay type: cell-based, Cryptococcus neoformans; details: treated at MIC, 12 h; PI + annexin V-FITC
From the text: Apoptosis includes a series of events occurring inside the cell, causing changes in plasma membrane, genetic material and various internal proteins, therefore leading to programmed cell death. One of the early markers of apoptosis is the translocation of a membrane phospholipid, phosphatidylserine, from the inner to the outer leaflet of the plasma membrane without altering the integrity of the plasma membrane. Annexin V-FITC interacts with the externalized phosphatidylserine, therefore showing the cell change towards apoptosis which can be analyzed using flow cytometry. The four quadrants in flow cytometry indicate different stages of the cells. The percentage depicts the population of the cells in a specific stage. Q1 corresponds to the percentage of cells undergoing necrosis, Q2 depicts the early apoptotic stage of the cells whereas Q4 corresponds to the cells in late-stage apoptosis and Q3 depicts the cells in the native state.
The treated cells along with a batch of untreated cells were centrifuged at 2000× g for 10 min at 4 °C and suspended in cold phosphate-buffered saline (PBS), followed by 2–3 washings with PBS. The harvested treated and untreated cells were then incubated with zymolyase for 1 h at ambient temperature to obtain cell protoplasm. The staining of obtained protoplasm was done using an Annexin V-FITC detection kit (Sigma-Aldrich, Saint Louis, DE, USA). The protoplasm of untreated cells was divided into 4 tubes (2 mL) and into 3 tubes a different staining agent was added while one was kept unstained. […] Furthermore, two more samples were prepared where protoplasm of 10d- and 10o-treated cells were stained with both PI and annexin V-FITC. All 6 samples were then analyzed by using an FACS Calibur (Becton-Dickinson, San Jose, CA, USA) at excitation of 488 nm (for FITC) and 560 nm (for PI) band filter. Approximately 10,000 cells were used for counting.

C. krusei = assay: microbe, parasite or virus in culture; assay type: cell-based, Candida krusei; details: 48 h
How it was run: as §1

[1] = system: C. neoformans (ATCC350) cells; assay: CLSM PI uptake assay; assay type: cell-based, Cryptococcus neoformans; details: at MIC, 12 h, then PI
Method: After incubation, treated and untreated cells were centrifuged at 2000× g for 10 min at 4 °C and suspended in cold PBS and followed by 2–3 washings with PBS. The cells were then incubated with PI (1.49 μM) for 1 h at room temperature with constant shaking (150× g rpm), and later harvested by centrifugation and suspended in PBS. Then, the cells were examined using confocal microscopy (Olympus Fluoview™ FV1000 SPD; Olympus, Tokyo, Japan) with a wavelength of >560 nm for PI. C. neoformans cells without treatment of active peptides served as a control.

C. neoformans = assay: microbe, parasite or virus in culture; assay type: cell-based, Cryptococcus neoformans; details: 48 h
How it was run: as §1

C. parapsilosis = assay: microbe, parasite or virus in culture; assay type: cell-based, Candida parapsilosis; details: 48 h
How it was run: as §1

E. faecalis = assay: microbe, parasite or virus in culture; assay type: cell-based, Enterococcus faecalis; details: 48 h

Method for HEK 293: The cells (50,000 cells/well) were seeded to the wells of the plate in Dulbecco’s Modified Eagle Medium (DMEM) supplemented with 10% fetal bovine serum at 37 °C overnight and incubated for 24 h to achieve confluency. Peptides at different concentrations of 50, 25, 12.5, 6.25, 3.12, 1.56 and 0.78 μg/mL were added to the cells in separate wells and incubated at 37 °C for 18 h. A further 20 µL MTT solution (5 mg/mL stock conc. in PBS) was added and the plate was incubated for another 3–4 h. To detect the viable cells that react with MTT to make formazan crystals, 120 μL of supernatant was removed and 100 μL DMSO was added to dissolve the crystals. Untreated cells and DMSO (10%) were used as negative and positive controls, respectively [37]. The percent viability of cells was calculated using equation:(2) % Cell viability=Av. Absorbance of treated cells/Av. Absorbance of control cells×100

SMILES | Cytotoxic nature (HEK 293) | IC50 (P. aeruginosa) [µg/mL] | MIC (P. aeruginosa) [µg/mL] | IC50 (C. albicans) [µg/mL] | MIC (C. albicans) [µg/mL] | IC50 (C. glabrata) [µg/mL] | MIC (C. glabrata) [µg/mL] | Cell population in Q1 (necrosis) (C. neoformans cells) [%] | Cell population in Q2 (early apoptotic stage) (C. neoformans cells) [%] | Cell population in Q3 (native state) (C. neoformans cells) [%] | Cell population in Q4 (late-stage apoptosis) (C. neoformans cells) [%] | IC50 (C. krusei) [µg/mL] | MIC (C. krusei) [µg/mL] | PI fluorescence of treated cells (CLSM) [1] | IC50 (C. neoformans) [µg/mL] | MIC (C. neoformans) [µg/mL] | IC50 (C. parapsilosis) [µg/mL] | MIC (C. parapsilosis) [µg/mL] | IC50 (E. faecalis) [µg/mL] | MIC (E. faecalis) [µg/mL]
COC(=O)[C@H](Cc1ncn(Cc2cc(C(C)(C)C)cc(C(C)(C)C)c2)c1I)NC(=O)[C@@H](N)Cc1c[nH]c2ccccc12 [10d, Trp-His[1-(3,5-di-tert-butylbenzyl)-5-iodo]-OMe] | non-cytotoxic | >35.2 | >64.0 | >35.2 | >64.0 | >35.2 | >64.0 | 1.7 | 1.3 | 44.8 | 52.2 | >35.2 | >64.0 | prominent red fluorescence | 2.20 (≈ 3.22 µM) | 4.01 (≈ 5.87 µM) | >35.2 | >64.0 | 17.6 (≈ 25.7 µM) | 32.0 (≈ 46.8 µM)
COC(=O)[C@H](Cc1ncn(Cc2ccccc2I)c1I)NC(=O)[C@@H](N)Cc1c[nH]c2ccccc12 [10o, Trp-His[1-(2-iodobenzyl)-5-iodo]-OMe] | non-cytotoxic | >35.2 | >64.0 | >35.2 | >64.0 | >35.2 | >64.0 | 2 | 1 | 48.9 | 48.1 | >35.2 | >64.0 | prominent red fluorescence | – | 4.59 (≈ 6.58 µM) | >35.2 | >64.0 | 17.6 (≈ 25.2 µM) | 32.0 (≈ 45.9 µM)
